Earlier results, collected in PubChem BioAssay AID1259409 (Chemical Carcinogenesis Research Information System (CCRIS), 2018).

System: rodent chemically induced tumor inhibition, incidence and multiplicity
Test: CCRIS tumor inhibitor studies
Conditions: Route [Inhibitor]: ORAL, Species: RAT, Promoter: NONE USED
Source text: The CCRIS database contains chemical records with carcinogenicity, mutagenicity, tumor promotion, and tumor inhibition test results. It was developed by the National Cancer Institute (NCI). Data are derived from studies cited in primary journals, current awareness tools, NCI reports, and other sources. Test results have been reviewed by experts in carcinogenesis and mutagenesis.
CCRIS provides historical information from the years 1985 - 2011. It is no longer updated.
This is an archive assay for CCRIS tumor inhibitor studies.

CC1=C(/C=C/C(C)=C/C=C/C(C)=C/C(=O)NCCO)C(C)(C)CCC1
tumour outcome (control, treated, inhibition, significance) (Carcinogen: 1,2-DIMETHYLHYDRAZINE, 540-73-8, Dose [Inhibitor]: 2 MMOL/KG DIET DAILY STARTING 12 D AFTER CARCINOGEN TREATMENT THROUGH ABOUT 8 MO AFTER CARCINOGEN DOSE (STUDY DURATION:, Strain/Sex: F344/MALE, Target Tissue: Type of Lesion: COLON: ADENOCARCINOMA, Dose [Carcinogen]: 150 MG/KG BW ONCE): 10/39 (26%), 5/30 (17%), 35%, not significant | tumour outcome (control, treated, inhibition, significance) (Carcinogen: 1,2-DIMETHYLHYDRAZINE, 540-73-8, Dose [Inhibitor]: 2 MMOL/KG DIET DAILY STARTING 12 D AFTER CARCINOGEN TREATMENT THROUGH ABOUT 8 MO AFTER CARCINOGEN DOSE (STUDY DURATION:, Strain/Sex: F344/MALE, Target Tissue: Type of Lesion: COLON: ADENOMA, Dose [Carcinogen]: 150 MG/KG BW ONCE): 23/39 (59%), 11/30 (37%), 37%, not significant | tumour outcome (control, treated, inhibition, significance) (Carcinogen: L-AZASERINE, 115-02-6, Dose [Inhibitor]: 1 MMOL/KG DIET DAILY FOR 358 D STARTING 1 WK AFTER COMPLETION OF CARCINOGEN TREATMENT (STUDY DURATION: 66 WK), Strain/Sex: WISTAR-LEWIS/FEMALE, Target Tissue: Type of Lesion: PANCREAS: ADENOMA, Dose [Carcinogen]: 10 MG/KG BW 1/WK FOR 15 WK): 50%, 25%, 50%, not significant | tumour outcome (control, treated, inhibition, significance) (Carcinogen: L-AZASERINE, 115-02-6, Dose [Inhibitor]: 1 MMOL/KG DIET DAILY FOR 358 D STARTING 1 WK AFTER COMPLETION OF CARCINOGEN TREATMENT (STUDY DURATION: 66 WK), Strain/Sex: WISTAR-LEWIS/FEMALE, Target Tissue: Type of Lesion: PANCREAS: CARCINOMA IN SITU, Dose [Carcinogen]: 10 MG/KG BW 1/WK FOR 15 WK): 8%, 25%, -213%, not calculated | tumour outcome (control, treated, inhibition, significance) (Carcinogen: L-AZASERINE, 115-02-6, Dose [Inhibitor]: 1 MMOL/KG DIET DAILY FOR 358 D STARTING 1 WK AFTER COMPLETION OF CARCINOGEN TREATMENT (STUDY DURATION: 66 WK), Strain/Sex: WISTAR-LEWIS/FEMALE, Target Tissue: Type of Lesion: PANCREAS: CARCINOMA, Dose [Carcinogen]: 10 MG/KG BW 1/WK FOR 15 WK): 13%, 0%, 100%, not significant | tumour outcome (control, treated, inhibition, significance) (Carcinogen: L-AZASERINE, 115-02-6, Dose [Inhibitor]: 1 MMOL/KG DIET DAILY FOR 358 D STARTING 1 WK AFTER COMPLETION OF CARCINOGEN TREATMENT (STUDY DURATION: 66 WK), Strain/Sex: WISTAR-LEWIS/FEMALE, Target Tissue: Type of Lesion: PANCREAS: NEOPLASM, Dose [Carcinogen]: 10 MG/KG BW 1/WK FOR 15 WK): 71%, 50%, 30%, p 0.14 | tumour outcome (control, treated, inhibition, significance) (Carcinogen: L-AZASERINE, 115-02-6, Dose [Inhibitor]: 1 MMOL/KG DIET DAILY FOR 358 D STARTING 1 WK AFTER COMPLETION OF CARCINOGEN TREATMENT (STUDY DURATION: 66 WK), Strain/Sex: WISTAR-LEWIS/MALE, Target Tissue: Type of Lesion: PANCREAS: ADENOMA, Dose [Carcinogen]: 10 MG/KG BW 1/WK FOR 15 WK): 25%, 56%, -124%, not calculated | tumour outcome (control, treated, inhibition, significance) (Carcinogen: L-AZASERINE, 115-02-6, Dose [Inhibitor]: 1 MMOL/KG DIET DAILY FOR 358 D STARTING 1 WK AFTER COMPLETION OF CARCINOGEN TREATMENT (STUDY DURATION: 66 WK), Strain/Sex: WISTAR-LEWIS/MALE, Target Tissue: Type of Lesion: PANCREAS: CARCINOMA IN SITU, Dose [Carcinogen]: 10 MG/KG BW 1/WK FOR 15 WK): 29%, 28%, 3%, not significant | tumour outcome (control, treated, inhibition, significance) (Carcinogen: L-AZASERINE, 115-02-6, Dose [Inhibitor]: 1 MMOL/KG DIET DAILY FOR 358 D STARTING 1 WK AFTER COMPLETION OF CARCINOGEN TREATMENT (STUDY DURATION: 66 WK), Strain/Sex: WISTAR-LEWIS/MALE, Target Tissue: Type of Lesion: PANCREAS: CARCINOMA, Dose [Carcinogen]: 10 MG/KG BW 1/WK FOR 15 WK): 46%, 8%, 83%, p<0.05 | tumour outcome (control, treated, inhibition, significance) (Carcinogen: L-AZASERINE, 115-02-6, Dose [Inhibitor]: 1 MMOL/KG DIET DAILY FOR 358 D STARTING 1 WK AFTER COMPLETION OF CARCINOGEN TREATMENT (STUDY DURATION: 66 WK), Strain/Sex: WISTAR-LEWIS/MALE, Target Tissue: Type of Lesion: PANCREAS: NEOPLASM, Dose [Carcinogen]: 10 MG/KG BW 1/WK FOR 15 WK): 100%, 92%, 8%, not significant | tumour outcome (control, treated, inhibition, significance) (Carcinogen: L-AZASERINE, 115-02-6, Dose [Inhibitor]: 2.0 MMOL/KG DIET DAILY FOR 336 D OUT OF 358 D STARTING 1 WK AFTER COMPLETION OF CARCINOGEN TREATMENT (STUDY DURATION: 66, Strain/Sex: WISTAR-LEWIS/FEMALE, Target Tissue: Type of Lesion: PANCREAS: NEOPLASM (ADENOMA, CARCINOMA IN SITU, CARCINOMA), Dose [Carcinogen]: 10 MG/KG BW 1/WK FOR 15 WK STARTING 15 WK PRIOR TO AGENT TREATMENT): ?/24 (71%), ?/24 (25%), 65%, p<0.05
